Test results taken from patent US20240366589A1, “NHE3-BINDING COMPOUNDS AND METHODS FOR INHIBITING PHOSPHATE TRANSPORT” (Ardelyx, Inc., priority 2013, published 2024).

How the values were obtained:
[1] = system: absorption of sodium from the intestinal lumen; test: Inhibition of intestinal sodium absorption: urinary sodium (uNa) 16 h after single oral dose in rats; format: in vivo, rat; details: for Urine Na % of control: oral gavage, 16 h post-dose
Description: (§1) Inhibition of intestinal sodium and phosphate absorption. Urinary sodium concentration and fecal form were measured to assess the ability of selected example compounds to inhibit the absorption of sodium from the intestinal lumen. Eight-week old Sprague-Dawley rats were purchased from Charles River Laboratories (Hollister, CA), were housed 2 per cage, and acclimated for at least 3 days before study initiation. Animals were fed Harlan Teklad Global 2018 rodent chow (Indianapolis, IN) and water ad libitum throughout the study and maintained in a standard light/dark cycle of 6 AM to 6 PM. On the day of the study, between 4 PM and 5 PM, a group of rats (n=6) were dosed via oral gavage with test compound, or a pharmaceutically acceptable salt thereof, or vehicle (water) at a volume of 10 mL/kg.
(§2) After dose administration animals were placed in individual metabolic cages where they were also fed the same chow in meal form and watered ad libitum. At 16 h post-dose, the urine samples were collected and fecal form was assessed by two independent observations. Fecal forms were scored according to a common scale associated with increasing fecal water to the wettest observation in the cage's collection funnel (1, normal pellet; 2, pellet adhering to sides of collection funnel due to moisture; 3, loss of normal pellet shape; 4, complete loss of shape with a blotting pattern; 5, liquid fecal streams evident). A rat's fecal form score (FFS) was determined by averaging both observational scores for all rats within a group (n=6). The vehicle group average was 1.
For urine samples, the volumes were determined gravimetrically and centrifuged at 3,600×g. The supernatants were diluted 100-fold in deionized Milli-Q water then filtered through a 0.2 μm GHP Pall AcroPrep filter plate (Pall Life Sciences, Ann Arbor, MI) prior to analysis by ion chromatography. Ten microliters of each filtered extract was injected onto a Dionex ICS-3000 ion chromatograph system (Dionex, Sunnyvale, CA). Cations were separated by an isocratic method using 25 mM methanesulfonic acid as the eluent on an IonPac CS12A 2 mm i.d.×250 mm, 8 μm particle size cation exchange column (Dionex). Sodium was quantified using standards prepared from a cation standard mix containing Li^+, Na^+, NH4^+, K^+, Mg^2+, and Ca^2+ (Dionex). The mean mass of sodium urinated for every group in the 16 h period was determined with the vehicle group usually urinating approximately 21 mg sodium. The urine Na (uNa) for rats in the test groups were expressed as a percentage of the vehicle mean and the means were compared to that of the vehicle group by utilizing a one-way analysis of variance coupled with a Dunnett's post hoc test.
Further experiments were performed to test the compounds under the persistent and prompt conditions described above, and to test their effects on urinary excretion of sodium in rats. The latter was performed by orally dosing the compounds in rats (single dose) and measuring urinary Na excretion (as a % of vehicle). The results are indicated as percentage of urinary sodium (UNa %); low values indicate relatively active compounds.

[2] = system: phosphorus and calcium levels in the urine of rats; test: Urinary excretion of phosphate and calcium in rats (16 h overnight urine); format: in vivo, rat; details: rats, oral gavage, 16 h post-dose
Rat NHE3 = target: T1, Rat NHE3 (Rattus norvegicus, UniProt P26433); test: Cell-based NHE3 activity under prompt conditions (OK cells, BCECF pH recovery), rat NHE3; details: for Prompt Rat NHE3 pIC50: prompt conditions
T1 construct: expressed in transfected cells; host or cells: Opossum kidney (OK) cells (ATCC), electroporation
T1 sequence (P26433 29-831): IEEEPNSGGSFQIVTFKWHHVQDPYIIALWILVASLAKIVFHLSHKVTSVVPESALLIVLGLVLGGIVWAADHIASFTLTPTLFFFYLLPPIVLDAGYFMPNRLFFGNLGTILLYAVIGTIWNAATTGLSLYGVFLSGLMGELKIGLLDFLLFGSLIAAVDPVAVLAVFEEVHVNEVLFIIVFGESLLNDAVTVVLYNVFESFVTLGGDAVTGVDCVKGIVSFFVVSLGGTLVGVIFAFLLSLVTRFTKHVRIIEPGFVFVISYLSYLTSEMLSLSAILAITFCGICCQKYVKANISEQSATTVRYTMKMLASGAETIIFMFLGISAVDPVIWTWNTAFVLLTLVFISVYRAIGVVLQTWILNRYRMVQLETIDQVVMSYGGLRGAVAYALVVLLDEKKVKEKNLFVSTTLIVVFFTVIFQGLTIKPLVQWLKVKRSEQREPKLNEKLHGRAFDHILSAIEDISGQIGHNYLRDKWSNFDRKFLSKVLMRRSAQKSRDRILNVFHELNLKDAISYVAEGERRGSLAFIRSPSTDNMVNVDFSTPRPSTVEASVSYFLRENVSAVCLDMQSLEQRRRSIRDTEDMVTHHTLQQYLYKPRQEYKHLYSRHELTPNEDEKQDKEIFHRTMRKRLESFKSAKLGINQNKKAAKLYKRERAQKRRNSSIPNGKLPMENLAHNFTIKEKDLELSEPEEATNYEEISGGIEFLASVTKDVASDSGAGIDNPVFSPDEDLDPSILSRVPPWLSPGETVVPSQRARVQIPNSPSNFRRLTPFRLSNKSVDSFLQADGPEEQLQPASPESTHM
Description: (§3) Cell-based activity under Prompt Conditions. Rat or human NHE3-mediated Na^+-dependent H antiport was measured using a modification of the pH sensitive dye method originally reported by Paradiso (PNAS USA. 81:7436-7440, 1984). Opossum kidney (OK) cells were obtained from the ATCC and propagated per their instructions. The rat NHE3 gene (GenBank M85300) or the human NHE3 gene (GenBank NM_004174.1) was introduced into OK cells via electroporation, and cells were seeded into 96 well plates and grown overnight. Medium was aspirated from the wells, cells were washed twice with NaCl-HEPES buffer (100 mM NaCl, 50 mM HEPES, 10 mM glucose, 5 mM KCl, 2 mM CaCl2, 1 mM MgCl2, pH 7.4), then incubated for 30 min at room temperature with NH4Cl-HEPES buffer (20 mM NH4Cl, 80 mM NaCl, 50 mM HEPES, 5 mM KCl, 2 mM CaCl2, 1 mM MgCl2, pH 7.4) containing 5 μM bis(acetoxymethyl) 3,3′-(3′,6′-bis(acetoxymethoxy)-5-((acetoxymethoxy)carbonyl)-3-oxo-3H-spiro[isobenzofuran-1,9′-xanthene]-2′,7′-diyl)dipropanoate (BCECF-AM).
(§4) Cells were washed twice with Ammonium free, Na^+-free HEPES (100 mM choline, 50 mM HEPES, 10 mM glucose, 5 mM KCl, 2 mM CaCl2, 1 mM MgCl2, pH 7.4) and incubated in the same buffer for 10 minutes at room temperature to lower intracellular pH. […] Initial rates were plotted as the average 2 or more replicates, and pIC50 values were estimated using GraphPad Prism.
(§5) Cell-based activity of NHE3 Activity under ‘Prompt’ Conditions. This assay was performed as described in Example 1 (supra).

Human NHE3 = target: T2, Human NHE3 (Homo sapiens, UniProt P48764); test: Cell-based NHE3 activity under prompt conditions (OK cells, BCECF pH recovery), human NHE3; details: for Prompt Human NHE3 pIC50: prompt conditions
T2 construct: expressed in transfected cells; host or cells: Opossum kidney (OK) cells (ATCC), electroporation
T2 sequence (P48764 26-834): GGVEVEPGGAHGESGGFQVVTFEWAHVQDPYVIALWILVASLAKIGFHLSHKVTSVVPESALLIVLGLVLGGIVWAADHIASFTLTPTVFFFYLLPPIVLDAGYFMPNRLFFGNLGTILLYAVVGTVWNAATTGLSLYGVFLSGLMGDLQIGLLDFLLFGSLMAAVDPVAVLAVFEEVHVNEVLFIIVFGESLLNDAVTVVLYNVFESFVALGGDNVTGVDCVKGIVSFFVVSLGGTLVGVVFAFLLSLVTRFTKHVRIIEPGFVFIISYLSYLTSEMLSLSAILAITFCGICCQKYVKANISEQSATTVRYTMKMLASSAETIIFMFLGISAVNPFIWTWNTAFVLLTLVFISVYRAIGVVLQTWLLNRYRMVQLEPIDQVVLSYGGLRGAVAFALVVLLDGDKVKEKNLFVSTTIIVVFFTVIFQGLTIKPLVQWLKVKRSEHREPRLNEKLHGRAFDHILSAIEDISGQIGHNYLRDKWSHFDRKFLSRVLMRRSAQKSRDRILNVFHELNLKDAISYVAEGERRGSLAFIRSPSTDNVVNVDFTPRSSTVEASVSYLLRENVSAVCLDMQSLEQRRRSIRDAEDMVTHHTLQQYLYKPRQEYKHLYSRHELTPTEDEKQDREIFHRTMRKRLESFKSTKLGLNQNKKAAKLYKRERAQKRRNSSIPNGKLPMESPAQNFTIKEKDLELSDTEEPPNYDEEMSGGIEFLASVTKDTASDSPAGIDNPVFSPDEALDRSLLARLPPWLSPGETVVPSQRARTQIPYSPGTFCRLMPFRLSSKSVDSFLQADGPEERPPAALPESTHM
Description: as §3, §4, §5

[3] = system: absorption of sodium from the intestinal lumen; test: Fecal form score (FFS) 16 h after oral dose in rats; format: in vivo, rat; details: oral gavage, 16 h post-dose, scale 1-5
Description: as §1, §2

SMILES | Urine Na % of control ([1]; dose 10 mg/kg) [%] | Urine P % of control ([2]; dose 10 mg/kg) [%] | Prompt Rat NHE3 pIC50 (Rat NHE3) | Prompt Human NHE3 pIC50 (Human NHE3) | Fecal Form Score average ([3]; dose 10 mg/kg) | further results
C/C(=C\c1cc(F)c(Oc2ccc(S(=O)(=O)NCCOCCOCCOCCNC(=O)N3CCN(C(=O)NCCOCCOCCOCCNS(=O)(=O)c4ccc(Oc5c(F)cc(/C=C(\C)C(=O)N=C(N)N)cc5F)cc4)CC3)cc2)c(F)c1)C(=O)N=C(N)N [compound 31] | 96 | 81 | 7.70 | 7.70 | 1 | 
CN1Cc2c(Cl)cc(Cl)cc2[C@H](c2cccc(S(=O)(=O)NCCOCCOCCNC(=O)CCC(CCC(=O)NCCOCCOCCNS(=O)(=O)c3cccc([C@@H]4CN(C)Cc5c(Cl)cc(Cl)cc54)c3)(CCC(=O)NCCOCCOCCNS(=O)(=O)c3cccc([C@@H]4CN(C)Cc5c(Cl)cc(Cl)cc54)c3)NC(=O)NC(CO)(CO)CO)c2)C1 [compound 158] |  |  | <5.00 | 6.90 |  | Urine Na % of control ([1]; dose 3 mg/kg): 32%; Urine P % of control ([2]; dose 3 mg/kg): 64%; Fecal Form Score average ([3]; dose 3 mg/kg): 2
N=C(N)Nc1nc(-c2ccc(OCCOCCOCCOCCN)cc2)c2cc(Cl)ccc2n1 [compound 37] | 63 | 101 | 7.50 | 7.50 | 1 | 
CN1Cc2c(Cl)cc(Cl)cc2[C@H](c2cccc(S(=O)(=O)NCCOCCOCCNC(=O)CCC(CCC(=O)NCCOCCOCCNS(=O)(=O)c3cccc([C@@H]4CN(C)Cc5c(Cl)cc(Cl)cc54)c3)(CCC(=O)NCCOCCOCCNS(=O)(=O)c3cccc([C@@H]4CN(C)Cc5c(Cl)cc(Cl)cc54)c3)NS(C)(=O)=O)c2)C1 [compound 122] |  |  | 6.20 | 6.80 |  | Urine Na % of control ([1]; dose 3 mg/kg): 30%; Urine P % of control ([2]; dose 3 mg/kg): 87%; Fecal Form Score average ([3]; dose 3 mg/kg): 2
NCCOCCOCCNS(=O)(=O)c1ccc(O[C@H]2c3cc(Cl)cc(Cl)c3C[C@@H]2N2CCCCC2)cc1 [compound 62] | 121 | 77 | <5.00 | 7.25 | 1 | 
CC(O)C(CCC(=O)NCCOCCOCCNS(=O)(=O)c1cccc([C@@H]2CN(C)Cc3c(Cl)cc(Cl)cc32)c1)(CCC(=O)NCCOCCOCCNS(=O)(=O)c1cccc([C@@H]2CN(C)Cc3c(Cl)cc(Cl)cc32)c1)CCC(=O)NCCOCCOCCNS(=O)(=O)c1cccc([C@@H]2CN(C)Cc3c(Cl)cc(Cl)cc32)c1 (stereo partly shown) [compound 173] |  |  | 7.60 | 8.10 |  | 
CN1Cc2c(Cl)cc(Cl)cc2[C@H](c2cccc(NC(=O)[C@H](O)[C@@H](O)[C@H](O)[C@H](O)CO)c2)C1 [Cpd 001] |  |  |  |  |  | UNa (%) ([1]; urinary Na excretion as % of vehicle, single oral dose 1 mg/kg): 41 @ 1 mg/kg %; Rat NHE3 pIC50 Prompt (Rat NHE3; Table E5, 001 free base, 002-005 dihydrochloride salt): 7.6; IC50 (Human NHE3; Table E5, 001 free base, 002-005 dihydrochloride salt, read-out: Human NHE3 pIC50 Prompt (converted)): 39.8 nM
O=C(NCCCCNC(=O)NCCOCCOCCNS(=O)(=O)c1ccc(O[C@H]2c3cc(Cl)cc(F)c3C[C@@H]2N2CCCCC2)cc1)NCCOCCOCCNS(=O)(=O)c1ccc(O[C@H]2c3cc(Cl)cc(F)c3C[C@@H]2N2CCCCC2)cc1 [compound 160] | 108 | 77 |  | 7.70 | 1 | 
CN1Cc2c(Cl)cc(Cl)cc2[C@H](c2cccc(S(=O)(=O)NCCOCCOCCOCCNC(=O)[C@@H](O)[C@H](O)C(=O)NCCOCCOCCOCCNS(=O)(=O)c3cccc([C@@H]4CN(C)Cc5c(Cl)cc(Cl)cc54)c3)c2)C1 [compound 6] |  |  |  | 8.30 |  | Urine Na % of control ([1]; dose 1 mg/kg): 21%; Urine P % of control ([2]; dose 1 mg/kg): 46%; Fecal Form Score average ([3]; dose 1 mg/kg): 2
CN(C)[C@H]1Cc2c(Cl)cc(Cl)cc2[C@@H]1Oc1ccc(S(=O)(=O)NCCOCCOCCNC(=O)NCCCCNC(=O)NCCOCCOCCN(C)S(=O)(=O)c2ccc(O[C@H]3c4cc(Cl)cc(Cl)c4C[C@@H]3N(C)C)cc2)cc1 [compound 171] | 49 | 49 |  | 8.20 | 1 | 
CN1Cc2c(Cl)cc(Cl)cc2[C@H](c2cccc(S(=O)(=O)NCCOCCOCCOCCNCc3ccc(-c4ccc(Cl)cc4)cc3)c2)C1 [compound 112] | 73 | 67 | <5.00 |  | 1 | 
